Reference: patent US6410584B1, “Method for inhibiting neoplastic cells with indole derivatives” (Cell Pathways, Inc., priority 1998, dated 2002)

Row | SMILES | melting point
1 | CCCCS(=O)(=O)NC(=O)c1ccc2[nH]cc(Cc3ccc(Cl)cc3Cl)c2c1 [Compound 48, 5-(1-butanesulfonylcarbamoyl)-3-(2,4-dichlorobenzyl)indole] | 165.5 to 166.2 °C
2 | CCCCS(=O)(=O)NC(=O)c1ccc2c(Cc3ccc(Cl)cc3Cl)c(C)[nH]c2c1 [Compound 90, 6-(1-butanesulfonylcarbamoyl)-3-(2,4-dichlorobenzyl)-2-methylindole] | 249 to 250 °C
3 | CCCS(=O)(=O)NC(=O)c1ccc2[nH]c(C)c(Cc3ccc(Cl)cc3Cl)c2c1 [Compound 91, 3-(2,4-dichlorobenzyl)-2-methyl-5-(1-propanesulfonylcarbamoyl)indole] | 161 to 163 °C
4 | Cc1[nH]c2ccc(C(=O)NS(=O)(=O)c3ccccc3)cc2c1Cc1ccc(Cl)cc1Cl [Compound 93, 5-(benzenesulfonylcarbamoyl)-3-(2,4-dichlorobenzyl)-2-methylindole] | 244 to 245 °C
5 | CCCCCCS(=O)(=O)NC(=O)c1ccc2[nH]c(C)c(Cc3ccc(Cl)cc3Cl)c2c1 [Compound 94, 3-(2,4-dichlorobenzyl)-5-(1-hexanesulfonylcarbamoyl)-2-methylindole] | 183 to 185 °C
6 | CCCCCS(=O)(=O)NC(=O)c1ccc2[nH]c(C)c(Cc3ccccc3Cl)c2c1 [Compound 96, 3-(2-chlorobenzyl)-2-methyl-5-(1-pentanesulfonylcarbamoyl)indole] | 175 to 177 °C
7 | CCCCS(=O)(=O)NC(=O)c1ccc2[nH]c(C)c(C(=O)c3ccc(Cl)cc3Cl)c2c1 [Compound 97, 5-(1-butanesulfonylcarbamoyl)-3-(2,4-dichlorobenzoyl)-2-methylindole] | 241 to 243 °C
8 | CCCCCS(=O)(=O)NC(=O)c1ccc2[nH]c(C)c(Cc3ccc(OCc4ccccc4)cc3)c2c1 [Compound 100, 3-(4-benzyloxybenzyl)-2-methyl-5-(1-pentanesulfonylcarbamoyl)indole] | 180 to 184 °C
9 | CCCCS(=O)(=O)NC(=O)c1ccc2c(C)c(Cc3ccc(Cl)cc3Cl)[nH]c2c1 [Compound 121, 6-(1-butanesulfonylcarbamoyl)-2-(2,4-dichlorobenzyl)-3-methylindole] | 215.5 to 216.1 °C

The next lines start with the values.

Row | melting point | SMILES
10 | 189 to 190 °C | CCCCCS(=O)(=O)NC(=O)c1ccc2[nH]c(C)c(Cc3ccc(-c4ccccc4)cc3)c2c1 [Compound 95, 3-(biphenyl-4-ylmethyl)-2-methyl-5-(1-pentanesulfonylcarbamoyl)indole]
11 | 167 to 169 °C | Cc1[nH]c2ccc(C(=O)NS(=O)(=O)CCC(C)C)cc2c1Cc1ccc(Cl)cc1Cl [Compound 98, 3-(2,4-dichlorobenzyl)-2-methyl-5-(3-methyl-1-butanesulfonylcarbamoyl)indole]
12 | 168 to 169 °C | CCCCCS(=O)(=O)NC(=O)c1ccc2[nH]c(CCC)c(Cc3ccc(Cl)cc3Cl)c2c1 [Compound 101, 3-(2,4-dichlorobenzyl)-5-(1-pentanesulfonylcarbamoyl)-2-propylindole]
13 | 201 to 205 °C | Cc1[nH]c2ccc(C(=O)NS(=O)(=O)C(F)(F)F)cc2c1Cc1ccc(Cl)cc1Cl [Compound 113, 3-(2,4-dichlorobenzyl)-2-methyl-5-(trifluoromethanesulfonylcarbamoyl)indole]
